Test results: patent US20130109682A1, “CYCLIC ETHER COMPOUNDS USEFUL AS KINASE INHIBITORS” (NOVARTIS AG, priority 2010, published 2013)

Assays:
Assay type in all cases: biochemical
[1] = molecular target: PIM1 (Homo sapiens, UniProt P11309); experiment: KinaseGlo Pim1 ATP depletion assay
Protocol: KinaseGlo Pim1 ATP Depletion Assay
The activity of PIM1 is measured using a luciferase-luciferin based ATP detection reagent to quantify ATP depletion resulting from kinase-catalyzed phosphoryl transfer to a peptide substrate. Compounds to be tested are dissolved in 100% DMSO and directly distributed into white 384-well plates at 0.5 μA per well. To start the reaction, 10 μA of 5 nM Pim1 kinase and 80 μM BAD peptide (RSRHSSYPAGT-OH) in assay buffer (50 mM HEPES pH 7.5, 5 mM MgCl2, 1 mM DTT, 0.05% BSA) is added into each well. After 15 minutes, 10 μl of 40 μM ATP in assay buffer is added. Final assay concentrations are 2.5 nM PIM1, 20 μM ATP, 40 μM BAD peptide and 2.5% DMSO. The reaction is performed until approximately 50% of the ATP is depleted, then stopped with the addition of 20 μA KinaseGlo Plus (Promega Corporation) solution. The stopped reaction is incubated for 10 minutes and the remaining ATP detected via luminescence on the Victor2 (Perkin Elmer). […] IC50, the half maximal inhibitory concentration, represents the concentration of a test compound that is required for 50% inhibition of its target in vitro.

[2] = molecular target: PIM3 (Homo sapiens, UniProt Q86V86); experiment: KinaseGlo Pim3 ATP depletion assay
Protocol: KinaseGlo Pim3 ATP Depletion Assay
The activity of PIM3 is measured using a luciferase-luciferin based ATP detection reagent to quantify ATP depletion resulting from kinase-catalyzed phosphoryl transfer to a peptide substrate. Compounds to be tested are dissolved in 100% DMSO and directly distributed into white 384-well plates at 0.5 μl per well. To start the reaction, 10 μl of 10 nM Pim3 kinase and 200 μM BAD peptide (RSRHSSYPAGT-OH) in assay buffer (50 mM HEPES pH 7.5, 5 mM MgCl2, 1 mM DTT, 0.05% BSA) is added into each well. After 15 minutes, 10 μl of 80 μM ATP in assay buffer is added. Final assay concentrations are 5 nM […], 40 μM ATP, 100 μM BAD peptide and 2.5% DMSO. The reaction is performed until approximately 50% of the ATP is depleted, then stopped by the addition of 20 μl KinaseGlo Plus (Promega Corporation) solution. The stopped reaction is incubated for 10 minutes and the remaining ATP detected via luminescence on the Victor2 (Perkin Elmer).

[3] = molecular target: PIM2 (Homo sapiens, UniProt Q9P1W9); experiment: KinaseGlo Pim2 ATP depletion assay
PIM2, sequence (Q9P1W9 whole entry): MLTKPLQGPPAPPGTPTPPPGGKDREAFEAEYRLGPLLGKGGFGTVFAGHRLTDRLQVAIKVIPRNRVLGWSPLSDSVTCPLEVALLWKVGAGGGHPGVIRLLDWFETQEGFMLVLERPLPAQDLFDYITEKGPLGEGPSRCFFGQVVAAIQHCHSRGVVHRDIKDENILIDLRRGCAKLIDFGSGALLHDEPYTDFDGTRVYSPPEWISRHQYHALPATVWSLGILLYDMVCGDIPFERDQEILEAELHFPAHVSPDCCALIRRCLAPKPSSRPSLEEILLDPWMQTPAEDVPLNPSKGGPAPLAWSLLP
Protocol: KinaseGlo Pim2 ATP Depletion Assay
The activity of PIM2 is measured using a luciferase-luciferin based ATP detection reagent to quantify ATP depletion resulting from kinase-catalyzed phosphoryl transfer to a peptide substrate. Compounds to be tested are dissolved in 100% DMSO and directly distributed into white 384-well plates at 0.5 piper well. To start the reaction, 10 μl of 10 nM Pim2 kinase and 20 μM BAD peptide (RSRHSSYPAGT-OH) in assay buffer (50 mM HEPES pH 7.5, 5 mM MgCl2, 1 mM DTT, 0.05% BSA) is added into each well. After 15 minutes, 10 μl of 8 μM ATP in assay buffer is added. Final assay concentrations are 5 nM PIM2, 4 μM ATP, 10 μM BAD peptide and 2.5% DMSO. The reaction is performed until approximately 50% of the ATP is depleted, then stopped with the addition of 20 μl KinaseGlo Plus (Promega Corporation) solution. The stopped reaction is incubated for 10 minutes and the remaining ATP detected via luminescence on the Victor2 (Perkin Elmer).

[4] = molecular target: GSK3β (Homo sapiens, UniProt P49841); experiment: GSK3β ATP depletion assay; details: read-out: GSK3b IC50
GSK3β, sequence (P49841 whole entry, species assumed): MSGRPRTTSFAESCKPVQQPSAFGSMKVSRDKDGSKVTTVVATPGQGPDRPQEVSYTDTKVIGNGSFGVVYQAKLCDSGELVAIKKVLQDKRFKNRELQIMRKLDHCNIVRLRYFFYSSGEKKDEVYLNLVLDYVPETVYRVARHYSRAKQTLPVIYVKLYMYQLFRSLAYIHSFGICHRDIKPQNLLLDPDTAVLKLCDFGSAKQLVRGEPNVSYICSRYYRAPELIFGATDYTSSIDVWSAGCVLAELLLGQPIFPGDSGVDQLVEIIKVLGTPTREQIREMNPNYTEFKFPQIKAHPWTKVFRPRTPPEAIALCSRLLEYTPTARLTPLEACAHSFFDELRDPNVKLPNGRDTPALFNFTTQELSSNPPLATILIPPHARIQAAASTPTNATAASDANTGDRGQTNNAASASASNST
Protocol: GSK3β ATP Depletion Assay
The activity of GSK3β is measured using a luciferase-luciferin based ATP detection reagent to quantify ATP depletion resulting from kinase-catalyzed phosphoryl transfer to a peptide substrate. Compounds to be tested are dissolved in 100% DMSO and directly distributed into white 384-well plates at 0.5 μl per well. To start the reaction, 10 μl of 10 nM GSK3B kinase and 20 μM biotinylated CREB peptide ([…](pS)YR-NH2) in assay buffer (50 mM TRIS pH 7.5, 15 mM MgCl2, 1 mM DTT, 0.1% BSA) is added into each well. After 15 minutes, 10 μl of 2 μM ATP in assay buffer is added. Final assay concentrations are 5 nM GSK3B, […], 10 μM b-CREB peptide and 2.5% DMSO. The reaction is performed until approximately 50% of the ATP is depleted, then stopped with the addition of 20 μl KinaseGlo (Promega Corporation) solution. The stopped reaction is incubated for 10 minutes and the remaining ATP is detected via luminescence on the Victor2 (Perkin Elmer).

PIM1, sequence (P11309 whole entry): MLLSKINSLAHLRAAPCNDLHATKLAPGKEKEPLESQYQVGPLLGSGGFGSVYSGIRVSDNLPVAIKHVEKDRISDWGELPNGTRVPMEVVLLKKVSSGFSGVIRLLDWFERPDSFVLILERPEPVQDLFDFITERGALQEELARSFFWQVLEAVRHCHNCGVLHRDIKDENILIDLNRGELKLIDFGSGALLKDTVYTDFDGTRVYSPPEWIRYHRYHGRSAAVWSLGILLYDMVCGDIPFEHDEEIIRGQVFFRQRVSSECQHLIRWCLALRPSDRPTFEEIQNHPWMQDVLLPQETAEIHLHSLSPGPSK

Row | SMILES | IC50 [1] [nM] | IC50 [2] [nM] | IC50 [3] [nM] | IC50 [4] [nM]
1 | C[C@@H]1O[C@H](c2ccncc2NC(=O)c2ccc(F)c(-c3c(F)cccc3F)n2)C[C@H](O)[C@]1(O)CO [Example 19, 6-(2,6-difluorophenyl)-N-(4-((2S,4S,5R,6S)-4,5-dihydroxy-5-(hydroxymethyl)-6-methyltetrahydro-2H-pyran-2-yl)pyridin-3-yl)-5-fluoropicolinamide] | 1 | 4 | 10 | 703
2 | C[C@H]1O[C@@H](c2ccncc2NC(=O)c2ccc(F)c(-c3c(F)cccc3F)n2)C[C@@H](O)[C@@]1(O)CO [Example 20, 6-(2,6-difluorophenyl)-N-(4-((2R,4R,5S,6R)-4,5-dihydroxy-5-(hydroxymethyl)-6-methyltetrahydro-2H-pyran-2-yl)pyridin-3-yl)-5-fluoropicolinamide] | 8 | 32 | 103 | 2560
3 | N#C[C@H]1OC(c2ccncc2NC(=O)c2ccc(F)c(-c3c(F)cccc3F)n2)=C[C@@H](O)[C@@H]1O [Example 21, N-(4-((2R,3S,4R)-2-cyano-3,4-dihydroxy-3,4-dihydro-2H-pyran-6-yl)pyridin-3-yl)-6-(2,6-difluorophenyl)-5-fluoropicolinamide] | 1 | 3 | 9 | 1140
4 | N#CC[C@H]1O[C@@H](c2ccncc2NC(=O)c2ccc(C#N)c(-c3c(F)cccc3F)n2)CC[C@@H]1O [Example 45, 5-cyano-N-(4-((2R,5S,6R)-6-(cyanomethyl)-5-hydroxytetrahydro-2H-pyran-2-yl)pyridin-3-yl)-6-(2,6-difluorophenyl)picolinamide] | 68 | 338 | 1270 | 4310
5 | O=C(Nc1cnccc1[C@@]1(C(F)(F)F)C[C@@H](O)C=CO1)c1ccc(F)c(-c2c(F)cccc2F)n1 [Example 48, 6-(2,6-difluorophenyl)-5-fluoro-N-(4-((2R,4R)-4-hydroxy-2-(trifluoromethyl)-3,4-dihydro-2H-pyran-2-yl)pyridin-3-yl)picolinamide] | 72 | 1770 | 19600 | 3620
6 | O=C(Nc1cnccc1[C@]1(C(F)(F)F)C[C@H](O)C=CO1)c1ccc(F)c(-c2c(F)cccc2F)n1 [Example 49, 6-(2,6-difluorophenyl)-5-fluoro-N-(4-((2S,4S)-4-hydroxy-2-(trifluoromethyl)-3,4-dihydro-2H-pyran-2-yl)pyridin-3-yl)picolinamide] | 27 | 73 | 1420 | 210
7 | O=C(Nc1cnccc1[C@]1(C(F)(F)F)C[C@H](O)CCO1)c1ccc(F)c(-c2c(F)cccc2F)n1 [Example 50, 6-(2,6-difluorophenyl)-5-fluoro-N-(4-((2S,4R)-4-hydroxy-2-(trifluoromethyl)tetrahydro-2H-pyran-2-yl)pyridin-3-yl)picolinamide] | 28 | 110 | 2130 | 196
8 | O=C(Nc1cnccc1[C@@]1(C(F)(F)F)CCCCO1)c1ccc(F)c(-c2c(F)cccc2F)n1 [Example 51, (R)-6-(2,6-difluorophenyl)-5-fluoro-N-(4-(2-(trifluoromethyl)tetrahydro-2H-pyran-2-yl)pyridin-3-yl)picolinamide] | 54 | 617 | 7360 | 3720
9 | O=C(Nc1cnccc1[C@]1(C(F)(F)F)CCCCO1)c1ccc(F)c(-c2c(F)cccc2F)n1 [Example 52, (S)-6-(2,6-difluorophenyl)-5-fluoro-N-(4-(2-(trifluoromethyl)tetrahydro-2H-pyran-2-yl)pyridin-3-yl)picolinamide] | 29 | 124 | 4220 | 695
10 | O=C(Nc1cnccc1[C@@]1(C(F)(F)F)C[C@@H](O)CCO1)c1ccc(F)c(-c2c(F)cccc2F)n1 [Example 53, 6-(2,6-difluorophenyl)-5-fluoro-N-(4-((2R,4S)-4-hydroxy-2-(trifluoromethyl)tetrahydro-2H-pyran-2-yl)pyridin-3-yl)picolinamide] | 78 | 847 | 10300 | 3120
11 | NC(=O)C[C@H]1O[C@@H](c2ccncc2NC(=O)c2ccc(F)c(-c3c(F)cccc3F)n2)C[C@@H](O)[C@@H]1O [Example 159, N-(4-((2R,4R,5S,6R)-6-(2-amino-2-oxoethyl)-4,5-dihydroxytetrahydro-2H-pyran-2-yl)pyridin-3-yl)-6-(2,6-difluorophenyl)-5-fluoropicolinamide] |  | 890 | 6640 | 
12 | CC[C@H]1O[C@@H](c2ccncc2NC(=O)c2c[nH]cc(-c3ccccc3)c2=O)C[C@@H](O)[C@@H]1O [Example 170, N-(4-((2R,4R,5S,6R)-6-ethyl-4,5-dihydroxytetrahydro-2H-pyran-2-yl)pyridin-3-yl)-4-oxo-5-phenyl-1,4-dihydropyridine-3-carboxamide] | 1450 | 1320 | 11800 | 3580
13 | O=C(Nc1cnccc1[C@@H]1C[C@H](O)[C@]2(O)CCCC[C@@H]2O1)c1c[nH]cc(-c2ccccc2)c1=O [Example 171, N-(4-((2S,4S,4aR,8aS)-4,4a-dihydroxyoctahydro-2H-chromen-2-yl)pyridin-3-yl)-4-oxo-5-phenyl-1,4-dihydropyridine-3-carboxamide] | 8370 | 10800 | > 25000 | > 25000
14 | Nc1cnc(-c2c(F)cccc2F)nc1C(=O)Nc1cnccc1[C@H]1C[C@@H](O)[C@@]2(O)CCCC[C@H]2O1 [Example 172, 5-amino-2-(2,6-difluorophenyl)-N-(4-((2R,4R,4aS,8aR)-4,4a-dihydroxyoctahydro-2H-chromen-2-yl)pyridin-3-yl)pyrimidine-4-carboxamide] | 2.2 | 3.1 | 3.1 | 21
15 | O=C(Nc1cnccc1[C@H]1C[C@@H](O)[C@H](O)[C@@H](CF)O1)c1ccc(F)c(-c2c(F)cccc2F)n1 [Example 282, 6-(2,6-difluorophenyl)-5-fluoro-N-(4-((2R,4R,5S,6S)-6-(fluoromethyl)-4,5-dihydroxytetrahydro-2H-pyran-2-yl)pyridin-3-yl)picolinamide] | 1 | 4 | 10 | 187
